Laboratory results reported in patent publication US20080085889A1, “Amidomethyl-Substituted 1-(Carboxyalkyl) Cyclopentyl-Carbonylamino-Benzazepine-N-Acetic Acid Compounds, Process and Intermediate Products for Their Preparation and Pharmaceutical Compositions Containing Them” (SOLVAY PHARMACEUTICALS GmbH, priority 2003, published 2008).

Experiments:
[1] = Plasma protein binding, equilibrium dialysis, rat plasma; type: in vitro ADME; settings: rat plasma (10% for routine testing), 37° C., pH 7.4, 10% plasma (100% for low binders), read-out: % bound (rat plasma) (converted)
Procedure: (§1) Plasma protein binding of the test substances of Formula I was measured using a validated equilibrium dialysis method. The dialysis cells consisted of two halves separated by a semi-permeable membrane slightly tensioned in between. […] Before being used, the membranes were re-hydrated by soaking in water followed by the dialysis buffer. Plasma (10% for routine testing, and 100% for compounds found to have a low protein binding) was heated to 37° C. and adjusted to pH 7.4 before use. 5 μM test compound solutions (final dimethylsulfoxide concentration 0.5%) were prepared in isotonic phosphate buffer containing rat or human plasma. The plasma-containing solution was on one side of the membrane, and the plasma-free on the other. Incubations were performed overnight (10% plasma assay), or for 2 hours (100% plasma assay) in triplicate. The cells were mounted in a drive unit that rotated the cells and ensured a uniform equilibrium was obtained. The equilibrium was temperature controlled by the drive unit being immersed in a water bath at 37° C. At the end of the equilibration time, the cells were emptied. The solutions for each batch of compounds were combined into two groups (plasma-free and plasma-containing) then cassette analysed by LC-MS/MS using two sets of calibration standards for plasma-free (7 points) and plasma-containing solutions (6 points). The percentage of protein bound compound was calculated as follows: [formula] PC=sample concentration in protein containing side; PF=sample concentration in protein free side;

[2] = test system: maximal SAP response to Big-ET; assay: In vivo i.v. potency (ID50) to inhibit maximal SAP response to Big-ET in anesthetized rats; set-up: species or system Rats (Sprague-Dawley); settings: Rattus norvegicus, iv, dose at which the pressor effect of Big-ET was suppressed by 50%
Procedure: Rats (Sprague-Dawley, CRLD=Charles River) were anaesthetised with 1 ml/kg Rompun/Ketavet 1:1. A pressure transducer (Statham) was inserted into the carotid artery to measure blood pressure.
For intravenous testing, one jugular vein was cannulated for administering the substance, and the other for administering Big-ET-1. […] Five minutes later, 0.5 nmol/kg Big-ET-1 was infused over a period of one minute. SAP, DAP, and heart rate were measured before administration of the substance, then before administration of Big-ET, and subsequently every five minutes after Big-ET administration over a period of 30 minutes using the pressure transducer in known manner. The maximum Big-ET-induced increase in blood pressure was calculated from the measured values as the difference between the value measured at the moment of maximum development of the Big-ET action (typically after 5 min) and the value measured before Big-ET infusion. The dose at which the pressor effect of Big-ET was suppressed by 50% (ID50) was estimated from the inhibitory effects observed over the range of dosages tested (n>5 rats for each dose).
The intravenous potency of the test compounds of Formula I (given as ID50 values) to inhibit the maximal SAP response to Big ET in anesthetized rats is set forth in the following Table 3b: […]

[3] = Plasma protein binding, equilibrium dialysis, human plasma; type: in vitro ADME; settings: human plasma (10% for routine testing), 37° C., pH 7.4, 10% plasma (100% for low binders), read-out: % bound (human plasma) (converted)
Procedure: as §1

## CN(C)CCCN(C)C(=O)CC(CC1(C(=O)NC2CCc3ccccc3N(CC(=O)O)C2=O)CCCC1)C(=O)O (centres unmarked) [Example 64, 2-[(1-{[1-(carboxymethyl)-2-oxo-2,3,4,5-tetrahydro-1H-1-benzazepin-3-yl]carbamoyl}cyclopentyl)methyl]-4-{[3-(dimethylamino)propyl](methyl)amino}-4-oxobutanoic acid]
[1]
  fraction unbound at 5 μM: 0.83
[2]
  ED50: 0.2 µmol/kg
[3]
  fraction unbound at 5 μM: ~1

## CCN(CCCCN)C(=O)CC(CC1(C(=O)NC2CCc3ccccc3N(CC(=O)O)C2=O)CCCC1)C(=O)O [Example 81, (2″rel1″)-4-[(4-aminobutyl)(ethyl)amino]-2-{[1-({[(3S)-1-(carboxymethyl)-2-oxo-2,3,4,5-tetrahydro-1H-1-benzazepin-3-yl]amino}carbonyl)cyclopentyl]methyl}-4-oxobutanoic acid]
[1]
  fraction unbound at 5 μM: 0.36
[2]
  ED50: 0.05 µmol/kg
[3]
  fraction unbound at 5 μM: 0.34

## CC(C)NC(=O)CC(CC1(C(=O)N[C@H]2CCc3ccccc3N(CC(=O)O)C2=O)CCCC1)C(=O)O (stereo in doubt) [Example 3, (2″rel1″)-2-{[(3S)-1-({[1-(carboxymethyl)-2-oxo-2,3,4,5-tetrahydro-1H-1-benzazepin-3-yl]amino}-carbonyl)cyclopentyl]methyl}-4-(isopropylamino)-4-oxobutyric acid]
[1]
  fraction unbound at 5 μM: 0.31
[3]
  fraction unbound at 5 μM: 0.58
